The values that follow come from patent US20060223876A1, “Indoloquinone Tumor Radiation Sensitization” (priority 2005, published 2006).

Read-outs that look alike come from different tables or passages of the source.

For assay [1], the system named is U-87 human glioblastoma cells. Here is the method: U-87 human glioblastoma cells (American Type Culture Collection) were maintained in alpha MEM medium (Sigma) with 10% fetal bovine serum (Atlanta Biologicals). A U-87 cell suspension was injected subcutaneously into the right hind limb (5×10^5 cells in 100 μl PBS) of athymic NCR NUM mice (Taconic Farms) and allowed to grow to a hypoxic volume of ˜550 mm^3 before treatment. Tumors were treated with EO9 and a fractionated radiation therapy schedule to test the hypothesis that EO9 would sensitize tumor cells to radiation therapy. EO9 or vehicle was administered 30 minutes after each radiation therapy fraction on day 1, 2, and 3. The study used 4 treatment groups: vehicle (DMSO), radiation therapy alone (3 days×7.5 Gy), EO9 (3 days×2 mg/kg), and EO9 +radiation therapy (3 days×7.5 Gy×2 mg/kg). EO9 was administered locally by intra-tumoral injection to achieve optimal delivery.
Irradiations were performed on anesthetized mice using an X-ray machine (Pantak) operating at 250 kV, 10 mA, with a 2-mm aluminum filtration. The effective photon energy was 90 keV. Mice were anesthetized with a combination of Ketamine and Acepromazine at a concentration of 75 mg/kg and 0.30 mg/kg respectively. Each mouse was confined in a lead casing with its tumor-bearing leg extended through an opening on the side to allow the tumor to be irradiated locally.
Mixed-effects regression was used to model the base-10 logarithm of tumor volume as a function of time and treatment (tumor growth analyses). The log-transformed outcome was used because tumors of this size grow approximately exponentially, and therefore the logarithm of the tumor volume is approximately linear over time. This approach appropriately handles unbalanced data, such as a different number of measurements for different animals, and takes into account the correlation of each animal's measurements over time. These analyses were carried out with SAS 8.2 (SAS Institute Inc., Cary, N.C., 1999-2001).

Assay [2] relates to U-87 human glioblastoma cells. Briefly: Long term study: EO9 and radiation therapy two non-consecutive days a week for 3 weeks, U-87 tumor xenograft growth. Conditions: for % Δ: average rate of increase of tumor volume / T2x: average doubling time of tumor volume: 2 days a week for 3 weeks. Format: in vivo, athymic NCR NUM mice. Here is the method:
The effective photon energy was 90 keV.
A protocol was investigated where EO9 and radiation therapy were administered over a longer period of time. In this study, EO9 or radiation therapy was delivered alone or in combination on two non-consecutive days a week for 3 weeks. Six groups received vehicle alone (DMSO), vehicle 30 minutes before radiation therapy (2 days×7.5 Gy), vehicle 30 minutes after radiation therapy (2 days×7.5 Gy), E09 only (2 days×3 mg/kg), EO9 […], and EO9 30 minutes after radiation therapy.

[3] abbreviates: EO9 + radiation therapy (3 days x 7.5 Gy x 2 mg/kg), EO9 30 minutes after each fraction.
[4] abbreviates: EO9 3 mg/kg 30 minutes after radiation therapy (7.5 Gy).
The mark [5] stands for this setting: EO9 3 mg/kg before radiation therapy (7.5 Gy).
Where [6] appears, read: EO9 only, 3 mg/kg intra-tumoral.

As to `Cn1c(/C=C/CO)c(CO)c2c1C(=O)C=C(N1CC1)C2=O` [EO9, 3-hydroxymethyl-5-aziridinyl-1-methyl-2-(1 H-indole-4,7-dione)-prop-β-en-α-ol], the “nature of the combination effect of EO9 and radiation therapy” value in assay [1] (EO9 + radiation therapy) is listed as “additive”. In addition, the “Estimated Time (Days) for tumors to reach 2000 mm^3” value is 20.8 days in assay [1] (setting [3]) and 8.6 days in assay [1] (EO9 alone, 3 days x 2 mg/kg intra-tumoral). For the same compound, the “T2x: average doubling time of tumor volume” value is listed as 11.7 days in assay [1] (setting [3]), 9.1 days in assay [2] (setting [4]), 17.3 days in assay [2] (setting [5]) and 6.1 days in assay [2] (setting [6]). The “% Δ (95% CI): average rate of increase of tumor volume” value in assay [1] (EO9 + radiation therapy (3 days x 7.5 Gy x 2 mg/kg), EO9 intra-tumoral 30 minutes after each fraction) is listed as 6 (4, 8) % daily increase; in assay [1] (EO9 alone, 3 days x 2 mg/kg intra-tumoral, tumors ~550 mm^3), 16 (14, 19) % daily increase. Also, the “increase of tumor doubling time vs. control” value in assay [1] (EO9 alone, 3 days x 2 mg/kg) was 1.4 days. Besides, the “rate of tumor growth compared with the other groups” value in assay [1] (EO9 and radiation therapy) was “slowest rate of tumor growth”. The “increase of mean tumor doubling time vs. control” value in assay [1] (combination of EO9 and radiation therapy) is reported as 8.5 days. The results for the “% Δ: average rate of increase of tumor volume” value in assay [2] (setting [4]), in assay [2] (setting [5]) and in assay [2] (setting [6]) were 8 % daily increase, 4 % daily increase and 12 % daily increase, respectively. The “effectiveness of dosing schedule” value in assay [2] (EO9 administered before radiation therapy) is “most effective dosing schedule”. Moreover, in assay [2] (groups receiving EO9 before or after radiation therapy combined into a single group (FIG. 8)), the “rate of tumor volume growth compared with the other groups” value is “slowest rate of tumor volume growth”.
